Laboratory results reported in ChEMBL document CHEMBL3881521, “Alpha-9 integrin antagonists and anti-inflammatory compositions therof” (2003).
Activity calls are given as the source filed them. The calls are words filed in the database; no cut-off is given here. *1 amine or outer side, *2 acyl side, *3 side chain or, on linkers, in order; H or OH if unused. Where a SMILES comes first, the peptide text is derived from it. Side-chain parts run from the residue outwards. [ ]: non-standard residue; d: D form. The star is where a group is joined. Tos = Cc1ccc(S(=O)(=O)*)cc1; NMeA = CN[C@@H](C)C(=O)O; CO = O=C([*:1])[*:2]; Sar = CNCC(=O)O

Columns and labels:
Assay type in all cases: cell-based
[1] = target: ITGB1-ITGA9 complex (Homo sapiens) (UniProt P05556+Q13797); experiment: Antagonist activity against integrin alpha9beta1 (unknown origin) expressed in SW480 cells assessed as inhibition of integrin alpha9-dependent cell adhesion to tenascin by binding saturation assay
[2] = target: Integrin alpha-4/beta-1 (Homo sapiens) (UniProt P05556+P13612); experiment: Inhibition of C-terminal human lgG1 heavy chain constant region tagged recombinant soluble VCAM-1 binding to integrin alpha4beta1 in human Jurkat cells incubated for 30 mins by FACS based 15/7 antibody assay
[3] = tested on: SW480; experiment: Selectivity for integrin alpha9beta1 (unknown origin) expressed in SW480 cells over integrin alpha5beta1 (unknown origin); settings: Homo sapiens
[4] = tested on: SW480; experiment: Selectivity for integrin alpha9beta1 (unknown origin) expressed in SW480 cells over integrin alpha4beta7 (unknown origin); settings: Homo sapiens

| Structure (SMILES) | inhibition [1] | inhibition [2] | Selectivity ratio [3] | Selectivity ratio [4] |
| --- | --- | --- | --- | --- |
| Cc1ccc(S(=O)(=O)N2CCC[C@H]2C(=O)N[C@@H](Cc2ccc(OC(=O)N3CCN(C)CC3)cc2)C(=O)O)cc1 | Active | Active | 100 | 100 |
| Cc1ccc(S(=O)(=O)N(C)CC(=O)N[C@@H](Cc2ccc(OC(=O)N(C)C)cc2)C(=O)O)cc1 (Tos-[Sar]-Tyr([CO-NMe2])-OH) | Active | Active | 100 | 100 |
| Cc1ccc(S(=O)(=O)N2CCC[C@H]2C(=O)N[C@@H](Cc2ccc(OC(=O)N3CCNCC3)cc2)C(=O)O)cc1 | Active | Active | 100 | 100 |
| Cc1ccc(S(=O)(=O)N2CCC[C@H]2C(=O)N[C@@H](Cc2ccc(OC(=O)N(C)C)cc2)C(=O)O)cc1 (Tos-Pro-Tyr([CO-NMe2])-OH) | Active | Active | 100 | 100 |
| CN(C)C(=O)Oc1ccc(C[C@H](NC(=O)[C@@H]2CCCN2S(=O)(=O)c2cnn(C)c2)C(=O)O)cc1 | Active | Active | 100 | 100 |
| Cc1ccc(S(=O)(=O)N2CCS(=O)(=O)C[C@@H]2C(=O)N[C@@H](Cc2ccc(OC(=O)N(C)C)cc2)C(=O)O)cc1 | Active | Active | 100 | 100 |
| Cc1ccc(S(=O)(=O)N(C)[C@@H](C)C(=O)N[C@@H](Cc2ccc(OC(=O)N(C)C)cc2)C(=O)O)cc1 (Tos-[NMeA]-Tyr([CO-NMe2])-OH) | Active | Active | 100 | 100 |
| Cc1ccc(S(=O)(=O)N2CS(=O)(=O)C(C)(C)[C@@H]2C(=O)N[C@@H](Cc2ccc(OCCCN(C)C)cc2)C(=O)O)cc1 | Active | Active | 100 | 100 |
| Cc1ccc(S(=O)(=O)N2CS(=O)(=O)C(C)(C)[C@@H]2C(=O)N[C@@H](Cc2ccc(OC(=O)N(C)C)cc2)C(=O)O)cc1 | Active | Active | 100 | 100 |
